In PubChem BioAssay (NCI):
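Compound exposure: 48 hours, 5 concentrations, 96-well plates. GI50 is the concentration that inhibits growth by half. Definition used: TGI = concentration required for complete inhibition of growth.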

Tests used:
Experiment in all cases: NCI tumour cell line growth inhibition, 48 h
DLD-1 colon = tested on: DLD-1 colon
DMS 273 small cell lung = tested on: DMS 273 small cell lung
HOP-18 NSCLC = tested on: HOP-18 NSCLC
KM20L2 colon = tested on: KM20L2 colon
LXFL 529 NSCLC = tested on: LXFL 529 NSCLC
DMS 114 small cell lung = tested on: DMS 114 small cell lung
RXF-631 renal = tested on: RXF-631 renal
XF 498 CNS = tested on: XF 498 CNS
MDA-N = tested on: MDA-N
P388 leukemia = tested on: P388 leukemia
P388/ADR leukemia = tested on: P388/ADR leukemia
SN12K1 renal = tested on: SN12K1 renal

| Compound | TGI (DLD-1 colon) [µM] | TGI (DMS 273 small cell lung) [µM] | TGI (HOP-18 NSCLC) [µM] | TGI (KM20L2 colon) [µM] | TGI (LXFL 529 NSCLC) [µM] | TGI (DMS 114 small cell lung) [µM] | TGI (XF 498 CNS) [µM] | TGI (MDA-N) [µM] | other results |
| --- | --- | --- | --- | --- | --- | --- | --- | --- | --- |
| C1COCCN1.C1COCCN1.N.N.[Cl-].[Pt+2] | > 100 | > 100 | > 100 | > 100 | > 100 | – | – | – | GI50 (DLD-1 colon): > 100 µM; GI50 (DMS 273 small cell lung): > 100 µM; GI50 (HOP-18 NSCLC): > 100 µM; GI50 (KM20L2 colon): > 100 µM; GI50 (LXFL 529 NSCLC): > 100 µM |
| CC(=O)OC1=C2CC3(C)OC(=O)CC(C)(C)C3=CC=C2C=C(C(C)C)C1=O (stereo not drawn) | 0.504 | 2.65 | 2.39 | 3.38 | 0.299 | 1.56 | – | – | TGI (RXF-631 renal): 3.08 µM |
| O=c1[nH]c2ccccc2cc1C(Cl)=C(Cl)Cl | > 100 | > 100 | > 100 | > 100 | > 100 | > 100 | > 100 | – | – |
| CCCCCCCCCCCCCCCC(=O)NCC(COP(=O)([O-])OCC[N+](C)(C)C)OCC (stereo not drawn) | 16.9 | 5 | 4.53 | 13.7 | 27.8 | 29.8 | 25.5 | – | – |
| CN(C)/C(=N/C(=S)Nc1ccccc1)SCc1ccccc1 | > 100 | > 100 | > 100 | – | > 100 | > 100 | > 100 | – | TGI (RXF-631 renal): > 100 µM |
| CSc1nc(SC)c2c(CN=[N+]=[N-])c(Br)n(Cc3ccccc3)c2n1 | – | – | – | – | – | – | – | > 100 | – |
| N/C(CC(=O)Nc1cc(C(F)(F)F)ccc1Cl)=N\O | – | – | – | – | – | – | – | > 100 | – |
| Cc1nn(-c2ccc(S(=O)(=O)[O-])cc2)c([O-])c1N=[N+](C)c1ccc(-c2ccc(N=Nc3ccc4c(S(=O)(=O)[O-])cc(S(=O)(=O)[O-])c(N)c4c3[O-])c([O-])c2)cc1[O-].[Cu+2].[Cu+2].[Na+] | – | – | – | – | – | – | – | > 100 | GI50 (MDA-N): > 100 µM |
| CCOC(=O)CC1=Nc2ccccc2SC1 | > 100 | > 100 | > 100 | > 100 | > 100 | > 100 | > 100 | – | TGI (RXF-631 renal): > 100 µM |
| N#CC1(c2nc3ccccc3o2)C(=O)C(=O)N(C2C3CC4CC(C3)CC2C4)C(=O)C1=O (stereo not drawn) | – | > 100 | > 100 | > 100 | > 100 | > 100 | > 100 | – | – |
| CCc1c2c(nc3cc4c(cc13)OCO4)-c1cc3c(c(=O)n1C2)COC(=O)[C@]3(O)CC | – | – | – | – | – | – | – | > 100 | – |
| C=CCSC[C@H](NC(=O)COc1ccccc1)C(=O)NC(C(=O)OCc1ccc([N+](=O)[O-])cc1)=C(C)C | > 100 | > 100 | > 100 | > 100 | > 100 | > 100 | – | – | TGI (RXF-631 renal): > 100 µM |
| CC(=O)OCC1OC(O[C@@H]2C[C@H]3C(C)(C)[C@H](OC(C)=O)CC[C@]3(C)[C@H]3CCC4=C([C@@H](C)C[C@@H](O)[C@H](O)C(C)(C)O)CC[C@@]4(C)[C@@]32C)C(O)C(O)C1O (stereo partly drawn) | – | – | – | – | – | – | – | 30.5 | GI50 (MDA-N): 16.8 µM |
| Clc1ccccc1C(c1ccccc1)(c1ccccc1)n1ccnc1 | – | – | – | – | – | – | – | 32.1 | – |
| CC(=O)[CH-]C(=O)c1ccccc1.CC(=O)[CH-]C(=O)c1ccccc1.CCCCCCCCCCCCCCCCCC(=O)[O-].CCCCCCCCCCCCCCCCCC(=O)[O-].[Ti+4] | > 100 | 38.7 | – | > 100 | 34.6 | – | – | – | GI50 (DLD-1 colon): 31.7 µM; GI50 (DMS 273 small cell lung): 20.1 µM; GI50 (KM20L2 colon): 33.9 µM; GI50 (LXFL 529 NSCLC): 18 µM |
| CSC1=NC=CCN1C | > 100 | > 100 | > 100 | > 100 | > 100 | > 100 | – | – | – |
| O=c1cc(-c2cccc(F)c2)[nH]c2cc3c(cc12)OCO3 | 8.93 | 75 | 75 | – | 75 | 2.24 | 75 | 0.0407 | – |
| COc1cc2c(c3c1C=CCO3)C(=O)c1ccccc1C2=O | 71.1 | > 100 | > 100 | > 100 | > 100 | > 100 | – | – | – |
| CC(CO)(CO)N=Cc1cc(I)cc(I)c1O | – | – | – | – | – | – | – | 64.2 | – |
| COc1ccc2cc1Oc1ccc(cc1)C[C@H]1c3cc(c(OC)cc3CCN1C)Oc1c(OC)c(OC)cc3c1[C@H](C2)N(C)CC3 | 20.5 | 13.2 | 20.3 | 10.7 | – | 15.3 | 18.1 | – | TGI (P388 leukemia): 9.38 µM; TGI (P388/ADR leukemia): 14.9 µM; TGI (SN12K1 renal): 14 µM |
| FC(F)(F)c1nc(-c2ccccc2Cl)[nH]c1C(F)(F)F | > 29.5 | 3.03 | 2.6 | 3.44 | 3.73 | 1.9 | 1.54 | – | – |
| O=[N+]([O-])[C@@H]1C2C=CC(C2)[C@H]1Cl (stereo partly drawn) | > 100 | > 100 | > 100 | – | > 100 | > 100 | > 100 | – | TGI (RXF-631 renal): > 100 µM |
| NC(CO)Cc1cnc[nH]1 (stereo not drawn) | – | – | – | – | – | – | – | > 100 | GI50 (MDA-N): > 100 µM |
| O=C(C#Cc1c[nH]c(=O)[nH]c1=O)c1ccccc1Cl | 29.3 | 38.8 | 34.4 | – | – | 46.9 | – | – | – |
| CCOC(=O)C1(CC)CCCCC(=O)N1 (stereo not drawn) | > 100 | > 100 | > 100 | > 100 | > 100 | > 100 | > 100 | – | – |
| COC(=O)C(c1[nH]nc2ccccc12)C(C(=O)OC)c1[nH]nc2ccccc12 (stereo not drawn) | > 100 | – | > 100 | > 100 | > 100 | 83.8 | > 100 | – | TGI (RXF-631 renal): > 100 µM |
